One test concerns the target human Y4/PP1 (Homo sapiens, UniProt P50391). In words: NPY Y4/PP1 receptor membrane binding, [125I] human PP. The conditions noted are these: membrane protein; 50 pM [125I] human PP; test compounds at 5 µM final concentration; read-out: IC50 (µM) NPY receptor indicated hY4/pp1. As to the method: Assays to determine binding affinity for human NPY Y2 and Y4/PP1 receptor subtypes are performed on GF/C Millipore 96-well plates pretreated with 0.02% polyethylenimine. The binding buffer for rat NPY Y2 receptor subtype binding is Krebs-Ringer bicarbonate (pH 7.4) containing 0.01% BSA and 0.005% bacitracin. Samples consist of membrane protein, 25 pM [^125I]PYY and test compounds at 5 µM final concentration. Nonspecific binding is defined by 1 µM NPY. The binding buffer for human Y4/PP1 binding consists of 137 mM NaCl, 5.4 mM KCl, 0.44 mM KH2PO4, 1.26 mM CaCl2, 0.81 mM MgSO4, 20 mM HEPES, 1 mM dithiothreitol, 0.1% bacitracin, 100 mg/l streptomycin sulfate, 1 mg/l aprotinin, 10 mg/ml soybean trypsin inhibitor and 0.3% BSA, pH 7.4. Samples consist of membrane protein, 50 pM human [^125I] human PP (hPP:NEN DuPont, Boston MA) and test compounds diluted to a final concentration of 5 µM. One µM hPP is used to define nonspecific binding. After a 2 hour incubation at room temperature with constant mixing, the samples are aspirated on a vacuum manifold, and rinsed with ice-cold binding buffer. The amount of radioactivity in each well is quantitated with either gamma counting or liquid scintillation.

Test [1] concerns the target T1, rat NPY Y5 receptor subtype (Rattus norvegicus, UniProt Q63634).
T1 sequence (Q63634 1-445): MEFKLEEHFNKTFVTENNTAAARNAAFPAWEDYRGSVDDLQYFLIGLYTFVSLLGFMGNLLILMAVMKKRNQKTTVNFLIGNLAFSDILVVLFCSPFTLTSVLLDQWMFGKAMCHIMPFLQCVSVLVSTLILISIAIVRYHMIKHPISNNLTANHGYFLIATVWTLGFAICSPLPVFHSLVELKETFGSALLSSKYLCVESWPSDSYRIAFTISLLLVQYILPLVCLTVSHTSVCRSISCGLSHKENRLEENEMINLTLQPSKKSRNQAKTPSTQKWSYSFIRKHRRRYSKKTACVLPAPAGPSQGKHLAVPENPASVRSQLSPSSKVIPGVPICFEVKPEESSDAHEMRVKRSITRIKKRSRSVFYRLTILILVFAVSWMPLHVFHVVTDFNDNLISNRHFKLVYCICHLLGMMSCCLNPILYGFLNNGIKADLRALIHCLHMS
Description: NPY Y5 receptor membrane binding, [125I]PYY (rat). The conditions noted are these: membrane protein; 75-100 pM [125I]PYY; 50% inhibition of specific binding; read-out: IC50 (µM) NPY receptor indicated rY5. The procedure:
Assays to determine human and rat NPY Y5 receptor subtype binding affinity are performed on GF/C Millipore 96-well plates pretreated with 0.02% polyethylenimine. The binding buffer is 25 mM Tris, 120 mM NaCl, 5 mM KCl, 1.2 mM KH2PO4, 2.5 mM CaCl2, 1.2 mM MgSO4, 0.1% BSA and 0.5 mg/ml bacitracin, pH 7.4. Samples consist of membrane protein, 75-100 pM [^125I] PYY (porcine, NEN-DuPont) and test compounds diluted in binding buffer. Nonspecific binding is defined by 1 µM PYY. After a 2 hour incubation at room temperature with constant mixing, the samples are aspirated on a vacuum manifold and rinsed with ice-cold binding buffer. The amount of radioactivity in each well is quantitated with either gamma counting or liquid scintillation. IC50 values, which correspond to 50% inhibition of specific binding, are determined with non-linear regression analysis.

The next test has as its target T2, rat NPY Y5 receptor (Rattus norvegicus, UniProt Q63634).
T2 construct: expressed in transfected cells
T2 sequence (Q63634 1-445): T1 sequence (Q63634 1-445)
In words: In vitro functional assay, forskolin-stimulated cAMP in cells stably expressing the receptor. The conditions noted are these: percentage of forskolin-stimulated adenylate cyclase; 1 µM forskolin; test compound 10 µM; 80 - 120% indicates no significant agonistic effect. In kind it is cell-based. As to the method:
An in vitro functional assay to determine rat NPY Y5 receptor subtype binding affinity is performed by resuspending cells stably expressing the rat NPY Y5 receptor in serum-free DMEM containing 10 mM HEPES (pH 7.4) and 1 mM isobutylmethylxanthine (IBMX). One µM forskolin and test compounds at a final concentration of 10 µM are then added to the cells. After a 20 minute incubation of the samples at 37°C, the assay is stopped by placing the samples in boiling water for 3 minutes. The cAMP produced in each sample is quantitated with a radioimmunoassay kit (NEN DuPont). Data are expressed as a percentage of forskolin-stimulated adenylate cyclase. Data between 80 - 120% indicates no significant agonistic effect.

Molecules are shown by their SMILES.

Chain of human Y4/PP1 (P50391 whole entry): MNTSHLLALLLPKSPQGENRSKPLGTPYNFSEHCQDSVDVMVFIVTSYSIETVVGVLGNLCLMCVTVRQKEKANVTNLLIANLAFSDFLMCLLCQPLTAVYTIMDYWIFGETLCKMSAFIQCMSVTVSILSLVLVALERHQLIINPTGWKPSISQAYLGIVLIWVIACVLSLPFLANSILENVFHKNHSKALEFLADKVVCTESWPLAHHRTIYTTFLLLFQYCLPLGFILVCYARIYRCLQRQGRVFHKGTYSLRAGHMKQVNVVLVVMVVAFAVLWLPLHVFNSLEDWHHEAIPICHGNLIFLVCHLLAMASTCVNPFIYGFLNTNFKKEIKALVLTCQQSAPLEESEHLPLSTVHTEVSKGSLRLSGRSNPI

Turning to `Cc1ccc(SCC(C(=O)c2ncc[nH]2)c2ccccc2)cc1` (stereo not shown) [Compound 2, (1H-Imidazol-2-yl)-2-phenyl-3-p-tolylsulfanyl-propan-1-one], the IC50 on human Y4/PP1 was more than 5 µM; in test [1] it was 0.46 µM.

As to `Cc1ccc(S(=O)(=O)CC(C(=O)c2nc3ccccc3s2)c2ccccc2)cc1` (stereo not shown) [Compound 6, 1-Benzothizol-2-yl-2-phenyl-3-(toluene-4-sulfonyl)-propan-1-one], the values for the IC50 (on human Y4/PP1; in test [1]) were more than 5 µM and 10 µM, respectively. Further, the “% forskolin at 10 µM” value on rat NPY Y5 receptor came to 89%.

In the case of `Cc1ccc(S(=O)(=O)CC(C(=O)c2nc3cc(C)c(C)cc3[nH]2)c2ccccc2)cc1` (stereo not shown) [Compound 7, (5,6-Dimethyl-1H-benzoimidazol-2-yl)-2-phenyl-3-(toluene-4-sulfonyl)-propan-1-one], the IC50 at human Y4/PP1 is more than 5 µM; in test [1], 0.0526 µM. For the same compound, the “% forskolin at 10 µM” value at rat NPY Y5 receptor turned out to be 122%.

Turning to `O=C(c1nc2ccccc2[nH]1)C(CS(=O)(=O)c1ccccc1)c1ccccc1` (stereo not shown) [Compound 8, 3-Benzenesulfonyl-1-(1H-benzoimidazol-2-yl)-2-phenyl-propan-1-one], the IC50 at human Y4/PP1 was more than 5 µM; in test [1], 0.011 µM. The “% forskolin at 10 µM” value at rat NPY Y5 receptor worked out at 105%.

`COc1ccc(S(=O)(=O)CC(C(=O)c2nc3ccccc3[nH]2)c2ccccc2)cc1` (stereo not shown) [Compound 10, 1-(1H-Benzoimidazol-2-yl)-3-(4-methoxy-benzenesulfonyl)-2-phenyl-propan-1-one]: the IC50 at human Y4/PP1 was more than 5 µM; in test [1] it was 0.0067 µM. The “% forskolin at 10 µM” value at rat NPY Y5 receptor amounted to 106%.

Consider `COc1ccc2[nH]c(C(=O)C(CS(=O)(=O)c3ccc(C)cc3)c3ccccc3)nc2c1` (stereo not shown) [Compound 14, 1-(5-Methoxy-1H-benzoimidazol-2-yl)-2-phenyl-3-(toluene-4-sulfonyl)-propan-1-one], for which, at human Y4/PP1, the IC50 is more than 5 µM. On rat NPY Y5 receptor, the “% forskolin at 10 µM” value is 99%.

For the origin of these results see patent EP1007514B1, “HETEROCYCLIC KETONES AS NPY Y5 ANTAGONISTS” (BAYER CORPORATION, priority 1997, dated 1999).
